Data set [1] concerns Bacillus licheniformis producing a subtilisin protease. Nature of the data set: Microtiter plate cultivation, biomass growth by scattered light. Type of data set: cell-based. The settings on record: μL scale; for development of biomass (scatter plot) / maximal biomass values lower compared to MGDA or NTA: 30° C., 48 h; for development of biomass (scatter plot): chelating agent equimolar; for higher scatter (growth and maximal scatter values) compared to citric acid, EGTA, HEEDTA, DTPA and EDTA: FIG. 1. The method, then: Glucose was supplied in total in an amount of 14 g/I for a cultivation time of 48 h. […] The different fermentation media were aliquoted to a BioLector Flowerplate/microtiter plate […] labs) 700 μL each and cultivated at 30° C., shaker frequency 1200 rpm for 48 h after inoculating with Bacillus licheniformis producing a subtilisin protease. During the cultivation oxygen partial pressure, pH and scattered light for biomass growth are measured online by optical sensors every 15 min.

Data set [2] can be described thus: Trace element solutions with different chelating agents: pH, color and precipitation. The class given is physicochemical. The note with it: for color development and clarity of trace element solution after final mixing: after addition of Na2MoO4 and final mixing (EDTA: after pH adjustment to pH 4); for measured pH value of trace element solution: after addition of all salts and final mixing, chelating agent equimolar to divalent cations; for precipitation of trace element solution after storage for 24 h and pH adjustment to pH 6: storage 24 h at room temperature or 4° C., pH readjusted to pH 6; for complexation and precipitation compared with citrate (summary): trace element solutions. The text has this: A trace element solution was mixed together with one of the following chelating agents: citric acid, […], DTPA, EGTA, or […]. Therefore, at first each chelating agent was weight equimolar to the utilized divalent cations. […] After each compound supplementation the solutions were characterized regarding pH value, color and precipitation. After the addition of the last compound, i.e., Na2MoO4, the solutions were aliquoted. […] Afterwards samples were again characterized by pH value, color and precipitation behavior.

The test system of data set [3] is Bacillus licheniformis producing a subtilisin protease. Nature of the data set: Protease formation in microtiter plate cultivation, casein based activity assay. Type of data set: cell-based. The settings on record: normalized activity units; for enzyme (protease) activity lower than with citrate: comparable for pH 6.7 and pH 7.7, μL scale; for enzyme (protease) activity compared with citrate: trace element solution pH 6.7 and pH 7.7, μL scale. The procedure:
Glucose was supplied in total in an amount of 14 g/I for a cultivation time of 48 h. […] The different fermentation media were aliquoted to a BioLector Flowerplate/microtiter plate […] labs) 700 μL each and cultivated at 30° C., shaker frequency 1200 rpm for 48 h after inoculating with Bacillus licheniformis producing a subtilisin protease. During the cultivation oxygen partial pressure, pH and scattered light for biomass growth are measured online by optical sensors every 15 min. For characterization of protease formation enzyme activity was measured by casein based activity assay.

A short description of data set [4]: Fermentation medium with trace element solutions and different chelating agents: precipitation. The class given is physicochemical. The settings on record: for precipitation in fermentation medium, pH adjustment to 6: samples with pH adjustment to 6; for precipitation in fermentation medium, pH adjustment to 6 / precipitation in fermentation medium, pH adjustment to 7.7: 24 h storage; for precipitation in fermentation medium, pH adjustment to 7.7: samples with pH adjustment to 7.7. The procedure: A fermentation medium was mixed with different chelating agents. Therefore, deionized water, Ca(NO3)2*4 H2O, MgSO4*7H2O, NH4H2PO4, and KH2PO4 were mixed together in this certain order with the respective chelating agent. Each chelating agent was weight equimolar to the utilized divalent cations. Afterwards the pH is measured. All three media were aliquoted six times each. Three aliquots of each medium were adjusted to pH 6.7, the other three samples to pH 7.7. Samples were mixed with the trace element solutions as described in Example 1 and stored at 35° C., room temperature and 4° C. for 24 h. Then color formation and precipitation were characterized.

The test system of data set [5] is Bacillus licheniformis producing a subtilisin protease. In words: Fed-batch cultivation process in 20 L scale, protease formation. The class given is cell-based. The settings on record: 20 L scale fed-batch; for STY (productivity), space time yield normalized to % / Titer (productivity), normalized to %: 37° C., pH 7.7, 2 mL/L chelating agent, citric acid = 100%. The method, then:
The fermentation processes were conducted in a baffled stirred tank reactor (STR) with pH, pO2 and temperature probes in a medium with glucose as main carbon source and complex plant protein as N-source. The concentration of O2 and CO2 were monitored by gas analyses. For the cultivations, the fedbatch mode was chosen with a start working volume of 10 L. As bioreactors, 21 L steal vessels were used with 3 rushton turbines with 6 blades.
Medium preparation and sterilization for seed and main culture medium took place in the bioreactor, respectively. The medium contained complex plant protein, NH4H2PO4, KH2PO4, Mn(II)SO4*H2O, Fe(II)SO4*7H2O, MgSO4*7H2O, Ca(NO3)2*4 H2O, trace element solution as described above, antifoam and 2 mL/L MGDA or citric acid. pH was adjusted to pH 6.5. The medium was sterilized in the bioreactor under stirred conditions (600 rpm) for 60 min at 121° C. For inoculation with Bacillus licheniformis producing a subtilisin protease 2% of the starting working volume was used from a seed culture fermenter with the same medium. Seed culture cultivation was conducted at 37° C. and harvested during exponential growth phase after 16 h. The main cultivation was conducted at 37° C., with pO2 dependent stirred cascade from 350-1400 rpm, pH 7.7 and an aeration rate of 1.5 wvvm. The glucose feed was started 8 h after inocu lation.

For `O=C(O)CN(CCN(CC(=O)O)CC(=O)O)CC(=O)O` [EDTA, ethylene diamine tetraacetic acid], in data set [1], the “development of biomass (scatter plot)” value is on record as “no growth was detected”. For the same compound, in data set [2], the “color development and clarity of trace element solution after final mixing” value (from here on “color development and clarity”) is “blue and clear solution”; the “measured pH value of trace element solution” value (from here on “measured pH value”) is recorded as 3; the “precipitation of trace element solution after storage for 24 h and pH adjustment to pH 6” value (shortened to “precipitation … to pH 6”) was “no further precipitation was noticed”. Besides, the “precipitation on supplementation of CuSO4” value in data set [2] (during preparation of the trace element solution) was “strong white precipitates occurred”.
Consider `O=C(O)CN(CCO)CCN(CC(=O)O)CC(=O)O` [HEEDTA, hydroxyethylethylene diamine triacetic acid], for which the “development of biomass (scatter plot)” value in data set [1] was “strong delayed growth and lower biomass development”. Moreover, the “enzyme (protease) activity lower than with citrate” value in data set [3] is 60%. Moreover, in data set [2], the “color development and clarity” value is “dark blue and was a clear solution”; the “measured pH value” value is recorded as 2.6; the “precipitation … to pH 6” value was “no precipitation was detected”; the “complexation and precipitation compared with citrate (summary)” value is reported as “better results than citrate”.
Consider `O=C(O)CC[C@@H](C(=O)O)N(CC(=O)O)CC(=O)O` [GLDA, glutamic acid N,N-diacetic acid], for which the “precipitation of trace element solution after storage for 3 h at 4° C.” value in data set [2] (3 h at 4° C.) is given as “precipitates were detected”. Besides, in data set [2], the “color development and clarity” value is “light blue and was a crystal clear solution”; the “measured pH value” value was found to be 3.7; the “precipitation … to pH 6” value was “precipitates were formed”.
With `O=C(O)CN(CC(=O)O)CC(=O)O` [NTA, nitrilotriacetic acid], in data set [1], the “development of biomass (scatter plot)” value was “fastest growth and highest values”; the “higher scatter (growth and maximal scatter values) compared to citric acid, EGTA, HEEDTA, DTPA and EDTA” value was found to be 20%. For the same compound, in data set [3], the “enzyme (protease) activity compared with citrate” value is given as “on a comparable level as the prior art standard citrate”. In addition, in data set [4], the “precipitation in fermentation medium, pH adjustment to 6” value is reported as “low precipitations” and the “precipitation in fermentation medium, pH adjustment to 7.7” value is “no precipitations occurred”. In data set [2], the “color development and clarity” value was “emerald green and was a crystal clear solution”; the “measured pH value” value is 2.5; the “precipitation … to pH 6” value was “Neither after storage time of 24 h nor after pH adjustment to pH of 6 any precipitates occurred”; the “complexation and precipitation compared with citrate (summary)” value is on record as “better results than citrate”.
Consider `O=C(O)CC(O)(CC(=O)O)C(=O)O` [citric acid], for which, in data set [1], the “maximal biomass values lower compared to MGDA or NTA” value is “about 20%” and the “development of biomass (scatter plot)” value is “biomass growth started delayed”. Also, in data set [5], the “STY (productivity), space time yield normalized to %” value worked out at 100% and the “Titer (productivity), normalized to %” value stood at 100%. Moreover, the “precipitation in fermentation medium” value in data set [4] (all samples, pH 6.7 and 7.7, 35° C., room temperature and 4° C. for 24 h) is given as “strong precipitations in all samples”. In data set [2], the “color development and clarity” value is “emerald green and was a crystal clear solution”; the “measured pH value” value was 4.6; the “precipitation … to pH 6” value is reported as “precipitates formed a red pellet”.
As for `CC(C(=O)O)N(CC(=O)O)CC(=O)O` (stereo not shown) [MGDA, methyl glycine diacetic acid], in data set [1], the “development of biomass (scatter plot)” value was “fastest growth and highest values”; the “higher scatter (growth and maximal scatter values) compared to citric acid, EGTA, HEEDTA, DTPA and EDTA” value amounted to 20%. Further, in data set [5], the “product titer and space time yields versus citric acid” value is “higher product titer and space time yields”; the “STY (productivity), space time yield normalized to %” value was 110%; the “Titer (productivity), normalized to %” value was 104%. Also, the “enzyme (protease) activity compared with citrate” value in data set [3] is given as “on a comparable level as the prior art standard citrate”. Further, in data set [4], the “precipitation in fermentation medium, pH adjustment to 6” value was “low precipitations” and the “precipitation in fermentation medium, pH adjustment to 7.7” value is listed as “no precipitations occurred”. Further, in data set [2], the “color development and clarity” value was “green blue and crystal clear solution”; the “measured pH value” value is recorded as 2.8; the “precipitation … to pH 6” value is given as “Neither after storage for 24 h nor after pH adjustment to pH of 6 any precipitates occurred”; the “complexation and precipitation compared with citrate (summary)” value is on record as “better results than citrate”.
On to `O=C(O)CN(CCN(CC(=O)O)CC(=O)O)CCN(CC(=O)O)CC(=O)O` [DTPA, diethylene triamine pentaacetic acid], for which, in data set [1], the “development of biomass (scatter plot)” value is “no growth was detected”. Also, in data set [2], the “color development and clarity” value was “dark green and was a clear solution”; the “measured pH value” value is recorded as 2.6; the “precipitation … to pH 6” value was “no precipitation was detected”; the “complexation and precipitation compared with citrate (summary)” value is “better results than citrate”.
In the case of `O=C(O)CN(CCOCCOCCN(CC(=O)O)CC(=O)O)CC(=O)O` [EGTA, ethylene glycol tetraacetic acid], in data set [1], the “maximal biomass values lower compared to MGDA or NTA” value was “about 20%” and the “development of biomass (scatter plot)” value is “biomass growth started delayed”. Besides, the “enzyme (protease) activity lower than with citrate” value in data set [3] is “about 25%”. Moreover, in data set [2], the “color development and clarity” value was “dark blue and was a clear solution”; the “measured pH value” value was 2.7; the “precipitation … to pH 6” value was “the solution turned darker and brownish”.

(Values after patent US20190292514A1, “FERMENTATION MEDIUM COMPRISING CHELATING AGENT” (priority 2016, published 2019).)
